In patent US11000033B2, “Ketone or oxime compound, and herbicide” (NISSAN CHEMICAL CORPORATION, priority 2014, dated 2021):

Assays:
Type in all cases: in vivo
[1] = system: Echinochloa oryzacola Vasing.; assay: Test Example 2: herbicidal activity, application during weed generation in submerged conditions (symbol A); settings: Table 23; application herbicide amount 320 g/ha; grade 0-5 by criteria of Test Example 1
Summary of the method: (§1)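 Alluvial soil in pots was flooded to a 4 cm water depth and sown with a mix of the three weed species, then grown in a greenhouse at 25° C. to 30° C. At the one- to two-leaf stage, an emulsifiable formulation diluted in water to a set dose was applied to the water surface. Effects were scored visually 3 weeks later.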

Scirpus juncoides = assay: Test Example 2: herbicidal activity, application during weed generation in submerged conditions (symbol B); settings: Table 23; application herbicide amount 320 g/ha; grade 0-5 by criteria of Test Example 1
Summary of the method: as §1

[2] = system: Echinochloa crus-galli var. crus-galli; assay: Test Example 3: herbicidal effect by foliage application, Wagner pot (symbol H); settings: application herbicide amount 320 g/ha
Summary of the method: (§2)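 Weeds and rice were sown in alluvial soil under 0.1–0.5 cm of standing water and grown for 14 days in a 25–30 °C greenhouse. An emulsion of the compound, diluted in water to a set dose, was sprayed evenly onto the foliage. Effect was scored against fixed criteria 3 weeks after treatment.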

Cyperus difformis = assay: Test Example 3: herbicidal effect by foliage application, Wagner pot (symbol E); settings: application herbicide amount 320 g/ha
Summary of the method: as §2

[3] = system: Echinochloa crus-galli var. crus-galli; assay: Test Example 4: herbicidal effect by soil treatment (symbol H); settings: 320 g/ha
Summary of the method: (§3)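 Seeds were sown in sterilized diluvial soil, covered with about 1.5 cm of soil, and the soil surface was sprayed with a water-diluted emulsion of the compound at a predetermined rate. Plants grew in a greenhouse at 25° C. to 30° C.; effects were scored visually 3 weeks after application.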

Alopecurus myosuroides = assay: Test Example 4: herbicidal effect by soil treatment (symbol J); settings: 320 g/ha
Summary of the method: as §3

Lolium multiflorum Lam. = assay: Test Example 4: herbicidal effect by soil treatment (symbol K); settings: 320 g/ha
Summary of the method: as §3

Amaranthus retroflexus [4] = assay: Test Example 4: herbicidal effect by soil treatment (symbol N); settings: 320 g/ha
Summary of the method: as §3

Chenopodium album [5] = assay: Test Example 4: herbicidal effect by soil treatment (symbol O); settings: 320 g/ha
Summary of the method: as §3

soybean = assay: Test Example 4: effect on crop by soil treatment (symbol d); settings: 320 g/ha
Summary of the method: (§4)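 Plants are raised in a greenhouse (25° C. to 30° C.) from spot-sown seed, which sits under about 1.5 cm of sterilized diluvial soil in a box shared with weed species.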

wheat = assay: Test Example 4: effect on crop by soil treatment (symbol e); settings: 320 g/ha
Summary of the method: as §4

beet [6] = assay: Test Example 4: effect on crop by soil treatment (symbol f); settings: 320 g/ha
Summary of the method: as §4

Setaria viridis = assay: Test Example 5: herbicidal effect by foliage application, plastic box (symbol G); settings: 320 g/ha, 3 weeks after application
Summary of the method: (§5)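 Emulsion formulation, diluted with water to the intended rate, was applied uniformly to leaves by small sprayer. Recipients were 14-day greenhouse-grown seedlings (25° C. to 30° C.). Assessment followed at 3 weeks.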

Abutilon theophrasti = assay: Test Example 5: herbicidal effect by foliage application, plastic box (symbol M); settings: 320 g/ha, 3 weeks after application
Summary of the method: as §5

Amaranthus retroflexus [7] = assay: Test Example 5: herbicidal effect by foliage application, plastic box (symbol N); settings: 320 g/ha, 3 weeks after application
Summary of the method: as §5

Chenopodium album [8] = assay: Test Example 5: herbicidal effect by foliage application, plastic box (symbol O); settings: 320 g/ha, 3 weeks after application
Summary of the method: as §5

Stellaria media = assay: Test Example 5: herbicidal effect by foliage application, plastic box (symbol P); settings: 320 g/ha, 3 weeks after application
Summary of the method: as §5

Veronica persica = assay: Test Example 5: herbicidal effect by foliage application, plastic box (symbol R); settings: 320 g/ha, 3 weeks after application
Summary of the method: as §5

rice plant = assay: Test Example 5: effect on crop by foliage application, plastic box (symbol b); settings: 320 g/ha, 3 weeks after application
Summary of the method: (§6)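 Seeds were sown in spots in sterilized diluvial soil held in a plastic box 21 cm × 13 cm × 7 cm deep, covered with about 1.5 cm of soil, and grown in a greenhouse at 25° C. to 30° C.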

beet [9] = assay: Test Example 5: effect on crop by foliage application, plastic box (symbol f); settings: 320 g/ha, 3 weeks after application
Summary of the method: as §6

Row | SMILES | Herbicidal effect grade, A: Echinochloa oryzacola Vasing. [1] | Herbicidal effect grade, B: Scirpus juncoides (Scirpus juncoides) | herbicidal effect on H (Echinochloa crus-galli var. crus-galli), grade 0-5 [2] | herbicidal effect on E, grade 0-5 (Cyperus difformis) | H: Echinochloa crus-galli var. crus-galli, herbicidal effect grade [3] | J: Alopecurus myosuroides, herbicidal effect grade (Alopecurus myosuroides) | K: Lolium multiflorum Lam., herbicidal effect grade (Lolium multiflorum Lam.) | N: Amaranthus retroflexus, herbicidal effect grade (Amaranthus retroflexus [4]) | O: Chenopodium album, herbicidal effect grade (Chenopodium album [5]) | d: soybean, effect grade on crop (soybean) | e: wheat, effect grade on crop (wheat) | f: beet, effect grade on crop (beet [6]) | G: Setaria viridis, herbicidal effect (criteria 0-5) (Setaria viridis) | M: Abutilon theophrasti, herbicidal effect (criteria 0-5) (Abutilon theophrasti) | N: Amaranthus retroflexus, herbicidal effect (criteria 0-5) (Amaranthus retroflexus [7]) | O: Chenopodium album, herbicidal effect (criteria 0-5) (Chenopodium album [8]) | P: Stellaria media, herbicidal effect (criteria 0-5) (Stellaria media) | R: Veronica persica, herbicidal effect (criteria 0-5) (Veronica persica) | b: directly sowed rice plant, effect on crop (criteria 0-5) (rice plant) | f: beet, effect on crop (criteria 0-5) (beet [9])
1 | CC(CC1CC(O)=C(c2c(C)cc(C)cc2C)C1=O)=NOCC(C)Cl (centres unmarked) [1-121] | 5 (Herbicidal ratio of 90% or more (almost completely withered)) | 4 (Herbicidal ratio of 70% or higher and lower than 90%) | 5 (Herbicidal ratio of 90% or more (almost completely withered)) | 4 (Herbicidal ratio of 70% or higher and lower than 90%) | 5 (Herbicidal ratio of 90% or more (almost completely withered)) | 5 (Herbicidal ratio of 90% or more (almost completely withered)) | 5 (Herbicidal ratio of 90% or more (almost completely withered)) | 0 (Herbicidal ratio of 5% or lower (almost no effect)) | 0 (Herbicidal ratio of 5% or lower (almost no effect)) | 0 (Herbicidal ratio of 5% or lower (almost no effect)) | 0 (Herbicidal ratio of 5% or lower (almost no effect)) | 0 (Herbicidal ratio of 5% or lower (almost no effect)) | 5 (Herbicidal ratio of 90% or more (almost completely withered)) | 3 (Herbicidal ratio of 40% or higher and lower than 70%) | 0 (Herbicidal ratio of 5% or lower (almost no effect)) | 3 (Herbicidal ratio of 40% or higher and lower than 70%) | 2 (Herbicidal ratio of 20% or higher and lower than 40%) | 3 (Herbicidal ratio of 40% or higher and lower than 70%) | 5 (Herbicidal ratio of 90% or more (almost completely withered)) | 0 (Herbicidal ratio of 5% or lower (almost no effect))
2 | CON=C(C)CC1CC(OS(=O)(=O)N(C)C)=C(c2c(C)cc(C)cc2C)C1=O (centres unmarked) [1-122] | 5 (Herbicidal ratio of 90% or more (almost completely withered)) | 5 (Herbicidal ratio of 90% or more (almost completely withered)) | 5 (Herbicidal ratio of 90% or more (almost completely withered)) | 5 (Herbicidal ratio of 90% or more (almost completely withered)) | 4 (Herbicidal ratio of 70% or higher and lower than 90%) | 5 (Herbicidal ratio of 90% or more (almost completely withered)) | 5 (Herbicidal ratio of 90% or more (almost completely withered)) | 0 (Herbicidal ratio of 5% or lower (almost no effect)) | 0 (Herbicidal ratio of 5% or lower (almost no effect)) | 0 (Herbicidal ratio of 5% or lower (almost no effect)) | 0 (Herbicidal ratio of 5% or lower (almost no effect)) | 0 (Herbicidal ratio of 5% or lower (almost no effect)) | 5 (Herbicidal ratio of 90% or more (almost completely withered)) | 4 (Herbicidal ratio of 70% or higher and lower than 90%) | 1 (Herbicidal ratio of 5% or higher and lower than 20%) | 0 (Herbicidal ratio of 5% or lower (almost no effect)) | 1 (Herbicidal ratio of 5% or higher and lower than 20%) | 0 (Herbicidal ratio of 5% or lower (almost no effect)) | 5 (Herbicidal ratio of 90% or more (almost completely withered)) | 0 (Herbicidal ratio of 5% or lower (almost no effect))
3 | CCCON=C(C)CC1CC(O)=C(c2c(C)cc(C)cc2C)C1=O (centres unmarked) [1-123] | 5 (Herbicidal ratio of 90% or more (almost completely withered)) | 3 (Herbicidal ratio of 40% or higher and lower than 70%) | 5 (Herbicidal ratio of 90% or more (almost completely withered)) | 4 (Herbicidal ratio of 70% or higher and lower than 90%) | 5 (Herbicidal ratio of 90% or more (almost completely withered)) | 5 (Herbicidal ratio of 90% or more (almost completely withered)) | 5 (Herbicidal ratio of 90% or more (almost completely withered)) | 0 (Herbicidal ratio of 5% or lower (almost no effect)) | 0 (Herbicidal ratio of 5% or lower (almost no effect)) | 0 (Herbicidal ratio of 5% or lower (almost no effect)) | 0 (Herbicidal ratio of 5% or lower (almost no effect)) | 0 (Herbicidal ratio of 5% or lower (almost no effect)) | 5 (Herbicidal ratio of 90% or more (almost completely withered)) | 4 (Herbicidal ratio of 70% or higher and lower than 90%) | 0 (Herbicidal ratio of 5% or lower (almost no effect)) | 0 (Herbicidal ratio of 5% or lower (almost no effect)) | 3 (Herbicidal ratio of 40% or higher and lower than 70%) | 4 (Herbicidal ratio of 70% or higher and lower than 90%) | 5 (Herbicidal ratio of 90% or more (almost completely withered)) | 0 (Herbicidal ratio of 5% or lower (almost no effect))
4 | CC(CC1CC(O)=C(c2c(C)cc(C)cc2C)C1=O)=NOCC(N)=O (centres unmarked) [1-124] | 2 (Herbicidal ratio of 20% or higher and lower than 40%) | 0 (Herbicidal ratio of 5% or lower (almost no effect)) | 5 (Herbicidal ratio of 90% or more (almost completely withered)) | 0 (Herbicidal ratio of 5% or lower (almost no effect)) | 1 (Herbicidal ratio of 5% or higher and lower than 20%) | 2 (Herbicidal ratio of 20% or higher and lower than 40%) | 3 (Herbicidal ratio of 40% or higher and lower than 70%) | 0 (Herbicidal ratio of 5% or lower (almost no effect)) | 0 (Herbicidal ratio of 5% or lower (almost no effect)) | 0 (Herbicidal ratio of 5% or lower (almost no effect)) | 0 (Herbicidal ratio of 5% or lower (almost no effect)) | 0 (Herbicidal ratio of 5% or lower (almost no effect)) | 2 (Herbicidal ratio of 20% or higher and lower than 40%) | 0 (Herbicidal ratio of 5% or lower (almost no effect)) | 0 (Herbicidal ratio of 5% or lower (almost no effect)) | 3 (Herbicidal ratio of 40% or higher and lower than 70%) | 2 (Herbicidal ratio of 20% or higher and lower than 40%) | 0 (Herbicidal ratio of 5% or lower (almost no effect)) | 3 (Herbicidal ratio of 40% or higher and lower than 70%) | 0 (Herbicidal ratio of 5% or lower (almost no effect))
